Several values for one entry are separate records, joined by “and”; a condition that tells them apart may be missing. Equal values may be shown once.
Test system: modified HGP-30 (mH, SEQ ID NO:6)
Test: Isotype analysis (ELISA) of anti-mH antibody in sera of immunized mice
Format: in vivo
Design: IgG1 / IgG2a / IgG2b / IgG3: unit not given here
Settings: for IgG1 / IgG2a / IgG2b / IgG3: ELISA signal, day 42 test bleeding
Experimental: Mice in groups (5-10 animals per group as designated) are immunized with the LEAPS constructs (25 μg/dose) of SEQ ID NO's:37, 38 and 39, in 0.2 mL emulsified 1:1 with adjuvant (Seppic's ISA-51 or Corixa's microfluidized MPL S/E) on days 0 and 14. Mice are evaluated by Delayed Type of Hypersensitivity (DTH) by inoculation on day 26 with 20 μl of a solution of saline or mH (SEQ ID NO:6) (25 μg in saline) in the left or right ear respectively. The DTH response is determined by measurement of the ear thickness 48 hours later and expressed as increase in ear thickness (mm) of experimental ear compared to that of the control ear. Individual animal sera are collected for measurement of antibody on day 28, 42, 63 and 77. Sera from individual animals and group pools are evaluated for specific anti-mH antibody, for total antibody, IgG1, IgG2a and IgG3 antibody isotype and cross clade titer at selected time points as indicated.
The results of an isotype analysis of day 42 test bleedings with G′-mH (SEQ ID NO:37), G-mH (SEQ ID NO:38), J-mH (SEQ ID NO:39), F-mH (SEQ ID NO:40) and F-HGP-30 (SEQ ID NO:41), are shown in Table 1.
An isotype analysis for pools of day 28 test bleedings G-mH, G′-mH and m-HGP-30/KLH using either MPL S/E or ISA51 as adjuvant, are shown in Table 3.

[1] = day 28 pool, group without '(with MPL)' (ISA51)

## NGQ EEK AGV VST GLI GGG ATL YSV HQR IDV KDT KEA LEK IEE EQN KS (DGQEEKAGVVSTGLIGGGEAQNTTYL) [SEQ ID NO: 58, Peptide G linked by GGG spacer to modified HGP-30 (mH)]
Group Average
  IgG1: 1.400
  IgG2a: 0.367
  IgG2b: 0.478
  IgG3: 0.531
Individual mouse
  IgG1: 1.810 and 2.606 and 1.738 and 0.123 and 1.649 and 2.651 and 0.562 and 0.431 and 0.042 and 2.391
  IgG2a: 0.152 and 1.386 and 0.074 and 0.005 and 0.129 and 1.619 and 0.047 and 0.031 and 0.025 and 0.200
  IgG2b: 0.223 and 2.038 and 0.464 and 0.017 and 0.025 and 1.613 and 0.059 and 0.038 and 0.183 and 0.123
  IgG3: 0.388 and 1.817 and 0.033 and −0.013 and 0.152 and 2.378 and 0.000 and 0.106 and 0.089 and 0.358
[1]
  Ig1, serial dilution 1:200: 0.507
  Ig1, serial dilution 1:800: 0.173
  Ig1, serial dilution 1:3200: 0.025
  Ig1, serial dilution 1:12800: 0.009
  Ig1, serial dilution 1:51200: 0.014
  Ig1, serial dilution 1:204800: 0.000
  Ig2a, serial dilution 1:200: 0.000
  Ig2a, serial dilution 1:800: 0.015
  Ig2a, serial dilution 1:3200: 0.000
  Ig2a, serial dilution 1:12800: 0.003
  Ig2a, serial dilution 1:51200: 0.006
  Ig2a, serial dilution 1:204800: 0.000
  Ig2b, serial dilution 1:200: 0.017
  Ig2b, serial dilution 1:800: 0.000
  Ig2b, serial dilution 1:3200: 0.004
  Ig2b, serial dilution 1:12800: 0.001
  Ig2b, serial dilution 1:51200: 0.000
  Ig2b, serial dilution 1:204800: 0.000
  Ig3, serial dilution 1:200: 0.009
  Ig3, serial dilution 1:800: 0.002
  Ig3, serial dilution 1:3200: 0.000
  Ig3, serial dilution 1:12800: 0.000
  Ig3, serial dilution 1:51200: 0.000
  Ig3, serial dilution 1:204800: 0.000
Day 28 pool, with MPL
  Ig1, serial dilution 1:200: 0.103
  Ig1, serial dilution 1:800: 0.022
  Ig1, serial dilution 1:3200: 0.003
  Ig1, serial dilution 1:12800: 0.000
  Ig1, serial dilution 1:51200: 0.000
  Ig1, serial dilution 1:204800: 0.000
  Ig2a, serial dilution 1:200: 0.248
  Ig2a, serial dilution 1:800: 0.048
  Ig2a, serial dilution 1:3200: 0.000
  Ig2a, serial dilution 1:12800: 0.000
  Ig2a, serial dilution 1:51200: 0.002
  Ig2a, serial dilution 1:204800: 0.000
  Ig2b, serial dilution 1:200: 0.147
